For 16 molecules, MIC results are on record in ChEMBL document CHEMBL3396945, “Modified calanolides incorporated with furan-2-nitro mimics against Mycobacterium tuberculosis” (2015).

≈ marks a conversion by molar mass, not a printed value.

Assay [1] has as its system Mycobacterium tuberculosis. The assay can be described thus: microbe, parasite or virus in culture. Type of assay: functional.
The test system of assay [2] is Mycobacterium tuberculosis. The assay can be described thus: microbe, parasite or virus in culture. The assay is classed as functional. The source holds these as a separate data set.

On to `CCCc1cc(=O)oc2c1c1c(c3oc(C(=O)OCC)cc32)C=CC(C)(C)O1`, for which the MIC in assay [1] and in assay [2] was more than 50 µg/mL throughout.
As for `CCCc1cc(=O)oc2c1c1c(c3oc(C(=O)O)cc32)C=CC(C)(C)O1`, the MIC in assay [1] and in assay [2] was more than 50 µg/mL each time.
As to `CCCc1cc(=O)oc2c1c1c(c3oc(C(=O)NN)cc32)C=CC(C)(C)O1`, the figures for the MIC in assay [1] and in assay [2] were more than 50 µg/mL and 50 µg/mL (≈ 136 µM), respectively.
The matching figures for `CCCc1cc(=O)oc2c1c1c(c3oc(C(=O)NNC(=O)c4ccncc4)cc32)C=CC(C)(C)O1`: more than 50 µg/mL and 25 µg/mL (≈ 52.8 µM).
With `CCCc1cc(=O)oc2c1c(OCCN1CCOCC1)cc1oc(C(=O)OCC)cc12`, the MIC in assay [1] and in assay [2] was more than 50 µg/mL each time.
In the case of `CCCc1cc(=O)oc2c1c(OCCN1CCOCC1)cc1oc(C(=O)O)cc12`, the MIC in assay [1] and in assay [2] was more than 50 µg/mL each time.
With `CCCc1cc(=O)oc2c1c(OCCN1CCOCC1)cc1oc(C(=O)NN)cc12`, the MIC in assay [1] and in assay [2] was more than 50 µg/mL in each case.
In the case of `CCCc1cc(=O)oc2c1c1c(c3oc(NC(=O)OCC)cc32)C=CC(C)(C)O1`, the MIC in assay [1] and in assay [2] was more than 50 µg/mL in each case.
For the molecule `CCCc1cc(=O)oc2c1c1c(c3oc(C#N)cc32)C=CC(C)(C)O1`, the MIC in assay [1] and in assay [2] was more than 50 µg/mL throughout.
For `CCCc1cc(=O)oc2c1c1c(c3oc(C(=O)N=[N+]=[N-])cc32)C=CC(C)(C)O1`, the MIC in assay [1] and in assay [2] was more than 50 µg/mL each time.
Regarding `CCCc1cc(=O)oc2c1c(OCCN1CCOCC1)cc1oc(C#N)cc12`, the MIC in assay [1] and in assay [2] was more than 50 µg/mL each time.
Take `CCCc1cc(=O)oc2c1c(OCCN1CCOCC1)cc1oc(/C(N)=N\O)cc12`: the MIC in assay [1] and in assay [2] was more than 50 µg/mL throughout.
On to `CCCc1cc(=O)oc2c1c(OCCN1CCOCC1)cc1oc(C(=N)N)cc12`, for which the MIC in assay [1] and in assay [2] was more than 50 µg/mL throughout.
With `CCCc1cc(=O)oc2c1c(OCCN1CCOCC1)cc1oc(-c3noc(=O)[nH]3)cc12`, the MIC in assay [1] and in assay [2] was more than 50 µg/mL in each case.
As for `CCCc1cc(=O)oc2c1c(OCCN1CCOCC1)cc1oc(-c3noc(C)n3)cc12`, the MIC in assay [1] and in assay [2] was more than 50 µg/mL each time.
With `CCCc1cc(=O)oc2c1c(OCCN1CCOCC1)cc1oc(-c3noc(C(F)(F)F)n3)cc12`, the MIC in assay [1] and in assay [2] was more than 50 µg/mL each time.
